Reference: PubChem BioAssay (NCI)
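How tested: cells in 96-well plates exposed to compound for 48 hours at five concentrations. TGI: concentration producing complete growth inhibition.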

How the values were obtained:
Experiment in all cases: NCI tumour cell line growth inhibition, 48 h
DMS 114 small cell lung = tested on: DMS 114 small cell lung
DMS 273 small cell lung = tested on: DMS 273 small cell lung
HOP-18 NSCLC = tested on: HOP-18 NSCLC
KM20L2 colon = tested on: KM20L2 colon
M19-MEL melanoma = tested on: M19-MEL melanoma
P388 leukemia = tested on: P388 leukemia
SN12K1 renal = tested on: SN12K1 renal
SNB-78 CNS = tested on: SNB-78 CNS
XF 498 CNS = tested on: XF 498 CNS
LXFL 529 NSCLC = tested on: LXFL 529 NSCLC

Row | Compound | TGI (DMS 114 small cell lung) | TGI (DMS 273 small cell lung) | TGI (HOP-18 NSCLC) | TGI (KM20L2 colon) | TGI (M19-MEL melanoma) | TGI (P388 leukemia) | TGI (SN12K1 renal) | TGI (SNB-78 CNS) | TGI (XF 498 CNS) | TGI (LXFL 529 NSCLC)
1 | CC(=O)NC1=C[C@@H]([C@H]2COC(C)(C)O2)OC1=O | > 100 µM | > 100 µM | > 100 µM | > 100 µM | > 100 µM | > 100 µM | > 100 µM | > 100 µM | > 100 µM | –
2 | c1csc(C[N+]23CN4CN(CN(C4)C2)C3)c1 | 40.2 µM | 41.8 µM | – | 55.7 µM | 56 µM | – | – | – | – | 43.1 µM
3 | C=C(OC1C(C)=C2C(C1OC(=O)CCCCCCC)C(C)(OC(C)=O)CC(OC(=O)CCC)C1(O)C2OC(=O)C1(C)O)/C(C)=C/C (stereo not drawn) | 0.207 µM | 0.453 µM | 9.19 µM | 1.23 µM | 1.29 µM | 0.993 µM | 0.0786 µM | 19.1 µM | 8.97 µM | –
4 | CCOC(=O)CC1(c2cccc3ccccc23)OC(=O)c2ccccc21 (stereo not drawn) | > 100 µM | > 100 µM | > 100 µM | > 100 µM | > 100 µM | – | – | > 100 µM | – | > 100 µM
5 | CCCCCCCCCCCCOCCCOP(=O)([O-])OCC[N+](C)(C)C | – | 35.5 µM | > 100 µM | > 100 µM | > 100 µM | 97.7 µM | > 100 µM | > 89.5 µM | > 89.4 µM | –
